Source: patent US6596889B1, “Nitrates of bis-platinum complexes with polyamine ligands” (Novuspharma S.p.A., priority 1999, dated 2003)
Counter-ions that a name gives are not always drawn.

Assay: HPLC stability following heating at 40° C. for 12 days under atmospheric pressure
Format: physicochemical
Description: column: Lichrospher RP8 (5 μm), 125×4 mm
The following table reports the HPLC data concerning the stability of Compound 1 and of Compound A (prepared as described in example 16 of WO 98/03519) following heating at 40° C. for 12 days under atmospheric pressure.
The used chromatographic method is that described in Example 3 and Example 4. The values of […] are in percent area.

[1] = 12 days 40° C., atmospheric pressure

Molecule | HPLC mean peak area [1] | main impurity, retention time 7 min, HPLC area [1] | main impurity, retention time 8 min, HPLC area [1] | main impurity, retention time 12 min, HPLC area [1] | main impurity, retention time 14 min, HPLC area [1] | main impurity, retention time 30 min, HPLC area [1] | main impurity, retention time 31 min, HPLC area [1] | HPLC mean peak area (t = 0) | main impurity, retention time 7 min, HPLC area (t = 0) | main impurity, retention time 8 min, HPLC area (t = 0) | main impurity, retention time 12 min, HPLC area (t = 0) | main impurity, retention time 14 min, HPLC area (t = 0) | main impurity, retention time 30 min, HPLC area (t = 0) | main impurity, retention time 31 min, HPLC area (t = 0)
[NH2][Pt+]([NH2])([Cl])[NH]CCC[NH2+]CCCC[NH2+]CCC[NH][Pt+]([NH2])([NH2])[Cl] [Compound 1, bis{trans(diammine)(chloro)platinum(II)}-μ-(1,12-diamino-4,9-diazadodecane-N^1, N^12) dinitrate salt.2HNO3] | 98.4 percent area | 0.1 percent area | 0.1 percent area | 0.2 percent area | 0.9 percent area | <0.1 percent area | 0.2 percent area | 98.5 percent area | 0.1 percent area | 0.1 percent area | 0.1 percent area | 0.8 percent area | <0.1 percent area | –
bis{trans(diammine)(chloro)platinum(II)}-μ-(1,12-diamino-4,9-diazadodecane-N^1, N^12)dichloride salt.2HCl [Compound A] | 89.8 percent area | 0.8 percent area | 1.6 percent area | 0.6 percent area | 0.8 percent area | 2.8 percent area | 1.7 percent area | 92.5 percent area | 0.1 percent area | 0.2 percent area | 0.3 percent area | 1.3 percent area | 2.3 percent area | 0.7 percent area
